Experiments:
Plasmodium falciparum = test: Antiplasmodial activity against chloroquine-sensitive Plasmodium falciparum 3D7 infected in human erythrocytes assessed as inhibition of parasite growth incubated for 72 hrs by DAPI staining based fluorescence analysis; type: functional, organism-based; conditions: 3D7, Erythrocyte
HEK293 = test: Cytotoxicity against human HEK293 cells at 40 uM; type: cell-based; conditions: hek293, 40 µM
[1] = Cytotoxicity against human HEK293 cells assessed as cell death; type: cell-based; conditions: read-out: LD50 (the source's name)

For CC(C)=CCC1(CC=C(C)C)C(=O)C(=O)C2=C1O[C@H](c1ccccc1)C[C@H]2O (relative stereo), the IC50 (Plasmodium falciparum) was 7 µM and the Activity (HEK293) was 101%.
With COc1cc(OC)c2c(c1CC=C(C)C)O[C@H](c1ccccc1)C[C@H]2OC the IC50 (Plasmodium falciparum) was 7.4 µM and the Activity (HEK293) was 87%.
For C=C(C)[C@H]1Cc2c(ccc3c2O[C@@H]2C(O)Oc4cc(OC)c(OC)cc4[C@@H]2C3=O)O1 (stereo partly drawn), the CC50 [1] was 10.9 µM and the IC50 (Plasmodium falciparum) was 8.6 µM.
Work on CC(C)=CCc1cc2c(cc1O)OC[C@@]1(O)c3cc4c(cc3O[C@@H]21)OCO4 yielded an IC50 (Plasmodium falciparum) of 10.2 µM and an Activity (HEK293) of 27%.
With COc1cc(OC)c2c(c1CC=C(C)C)O[C@H](c1ccccc1)C[C@H]2O the IC50 (Plasmodium falciparum) was 14.5 µM.
CC(C)=CCC1(CC=C(C)C)C(=O)[C@@](O)(CC=C(C)C)C(=O)C2=C1O[C@H](c1ccccc1)C[C@H]2O (relative stereo) gave an IC50 (Plasmodium falciparum) of 7.3 µM and an Activity (HEK293) of 71%.
Work on CC(C)=CCC1(CC=C(C)C)C(=O)[C@](O)(CC=C(C)C)C(=O)C2=C1O[C@H](c1ccccc1)C[C@H]2O (relative stereo) yielded an IC50 (Plasmodium falciparum) of 5.7 µM and an Activity (HEK293) of 34%.
